24 molecules from patent US8134015B2, “Compound inhibiting in vivo phosphorous transport and medicine containing the same” (Kyowa Hakko Kirin Co., Ltd., priority 2003, dated 2012) can be followed below.

SMILES strings stand for the structures.

The first assay addresses T1, rat NaPi-2b (Rattus norvegicus, UniProt Q9JJ09).
T1 construct: expressed in transfected cells; host or cells: Xenopus oocytes injected with cRNA
T1 sequence (Q9JJ09 1-695): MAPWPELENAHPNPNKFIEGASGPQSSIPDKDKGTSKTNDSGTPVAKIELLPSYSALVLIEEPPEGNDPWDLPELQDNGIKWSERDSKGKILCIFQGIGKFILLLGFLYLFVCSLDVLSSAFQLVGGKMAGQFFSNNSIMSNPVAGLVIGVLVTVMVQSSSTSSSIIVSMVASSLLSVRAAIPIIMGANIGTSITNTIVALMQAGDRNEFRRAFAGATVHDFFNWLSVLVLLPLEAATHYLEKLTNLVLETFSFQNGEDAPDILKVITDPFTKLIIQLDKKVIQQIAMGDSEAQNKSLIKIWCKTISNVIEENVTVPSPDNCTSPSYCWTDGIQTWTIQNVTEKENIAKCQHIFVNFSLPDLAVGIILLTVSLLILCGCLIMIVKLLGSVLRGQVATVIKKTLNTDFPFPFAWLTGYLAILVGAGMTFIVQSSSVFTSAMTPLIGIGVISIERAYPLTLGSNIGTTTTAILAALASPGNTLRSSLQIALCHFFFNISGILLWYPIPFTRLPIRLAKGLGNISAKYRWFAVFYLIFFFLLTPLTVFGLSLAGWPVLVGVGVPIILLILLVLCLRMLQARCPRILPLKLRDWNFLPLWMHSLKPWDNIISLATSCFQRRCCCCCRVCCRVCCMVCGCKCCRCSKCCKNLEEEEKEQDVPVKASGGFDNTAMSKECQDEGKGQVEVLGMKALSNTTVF
In words: Sodium-dependent phosphate uptake of Xenopus oocytes which expressed NaPi-2b (32P). The format is cell-based. The following applies: Xenopus oocytes expressing rat NaPi-2b, 32P radioactive phosphorus; read-out: IC50 (phosphate uptake inhibitory activity). In a few lines:
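Oocytes injected with rat NaPi-2b cRNA, cultured 2 d, then 32P uptake measured with compound. Values: % inhibition at 300 and 100 μM, both from one inhibition curve.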
In general, IC50 refers to the concentration that gives 50% inhibition. For the molecule `O=C(Nc1ccc(Br)cc1C(=O)N/N=C/c1cccc(F)c1)c1cccc(CSc2nc[nH]n2)c1` [Compound 271, N-[4-Bromo-2-(3-fluoro-benzylidene-hydrazinocarbonyl)-phenyl]-3-(1H-[1,2,4]triazol-3-ylsulfanylmethyl)-benzamide], the half-inhibitory concentration (IC50) was determined as 0.21 µM.
For `CN(CCO)Cc1ccc(C(=O)Nc2ccc(Cl)cc2C(=O)N/N=C/c2cccc(O)c2)cc1` [Compound 420, N-[4-Chloro-2-(3-hydroxy-benzylidene-hydrazinocarbonyl)-phenyl]-4-{[(2-hydroxy-ethyl)-methyl-amino]-methyl}-benzamide], the IC50 came out at 27.1 µM.
On to `CCN(CC)CCN(C)Cc1cccc(C(=O)Nc2ccc(Cl)cc2C(=O)N/N=C/c2ccc(OC)cc2)c1` [Compound 386, N-[4-Chloro-2-(4-methoxy-benzylidene-hydrazinocarbonyl)-phenyl]-3-{[(2-diethylamino-ethyl)-methyl-amino]-methyl}-benzamide], for which the IC50 is less than 3 µM.
Regarding `COc1ccc(C(=O)Nc2ccc(OCCN(C)C)cc2C(=O)N/N=C/c2ccc(F)cc2)cc1OC` [Compound 139, N-[4-(2-Dimethylamino-ethoxy-)-2-(4-fluoro-benzylidene-hydrazinocarbonyl)-phenyl]-3,4-dimethoxy-benzamide], the IC50 amounted to 55.5 µM.
On the same count and under the same terms, the value for `Cc1ccc(/C=N/NC(=O)c2c(NC(=O)c3cccc(CN4CCC(CO)CC4)c3)sc3ccccc23)cc1C` [Compound 798, N-[3-(3,4-Dimethyl-benzylidene-hydrazinocarbonyl)-benzo[b]thiophen-2-yl]-3-(4-hydroxymethyl-piperidin-1-ylmethyl)-benzamide] was 3.62 µM.
Take `Cc1ccc(/C=N/NC(=O)c2cc(OCCN3CCCCC3)ccc2NC(=O)c2cccc(CSCCO)c2)cc1C` [Compound 1043, N-[2-(3,4-Dimethyl-benzylidene-hydrazinocarbonyl)-4-(2-piperidin-1-yl-ethoxy)-phenyl]-3-(2-hydroxy-ethylsulfanylmethyl)-benzamide]: the IC50 was found to be 8.26 µM.
As for `COc1ccc(C(=O)Nc2ccc(Cl)cc2C(=O)N/N=C/c2ccc(F)cc2)cc1OC` [Compound 66, N-[4-Chloro-2-(4-fluoro-benzylidene-hydrazinocarbonyl)-phenyl]-3,4-dimethoxy-benzamide], the IC50 amounted to 0.89 µM.
Turning to `Cc1ccc(/C=N/NC(=O)c2cc(Br)ccc2NC(=O)c2ccc(CSc3ccncc3)cc2)cc1` [Compound 258, N-[4-Bromo-2-(4-methyl-benzylidene-hydrazinocarbonyl)-phenyl]-4-(pyridin-4-ylsulfanylmethyl)-benzamide], the IC50 is less than 3 µM.
Turning to `COc1ccc(C(=O)Nc2ccccc2C(=O)N/N=C/c2cccc(F)c2)cc1` [Compound 47, N-[2-(3-Fluoro-benzylidene-hydrazinocarbonyl)-phenyl]-4-methoxy-benzamide], the IC50 came to 4.38 µM.
For `CCN(CCO)Cc1cccc(C(=O)Nc2ccc(Cl)cc2C(=O)N/N=C/c2ccc(Cl)c(C(F)(F)F)c2)c1` [Compound 427, N-[4-Chloro-2-(4-chloro-3-trifluoromethyl-benzylidene-hydrazinocarbonyl)-phenyl]-3-{[ethyl-(2-hydroxy-ethyl)-amino]-methyl}-benzamide], the IC50 was less than 3 µM.
For the molecule `COc1ccc(/C=N/NC(=O)c2cscc2NC(=O)c2cccc(CN3CCN(CCO)CC3)c2)cc1` [Compound 984, 3-[4-(2-Hydroxy-ethyl)-piperazin-1-ylmethyl]-N-[4-(4-methoxy-benzylidene-hydrazinocarbonyl)-thiophen-3-yl]-benzamide], the IC50 was found to be 22.1 µM.
On to `CCN(CC)CCN(C)Cc1ccc(C(=O)Nc2ccc(Br)cc2C(=O)N/N=C/c2cccc(F)c2)cc1` [Compound 288, N-[4-Bromo-2-(3-fluoro-benzylidene-hydrazinocarbonyl)-phenyl]-4-{[(2-diethylamino-ethyl)-methyl-amino]-methyl}-benzamide], for which the IC50 was found to be 1.31 µM.
For `COc1ccc(C(=O)Nc2ccccc2C(=O)N/N=C/c2cccc(O)c2)cc1OC` [Compound 18, N-[2-(3-Hydroxy-benzylidene-hydrazinocarbonyl)-phenyl]-3,4-dimethoxy-benzamide], the IC50 amounted to 4.03 µM.
For `Cc1cccc(/C=N/NC(=O)c2cc(Cl)ccc2NC(=O)c2ccncc2)c1` [Compound 191, N-[4-Chloro-2-(3-methyl-benzylidene-hydrazinocarbonyl)-phenyl]-isonicotinamide], the IC50 is 12.1 µM.
`COc1ccc(C(=O)Nc2ccccc2C(=O)N/N=C/c2ccc(O)cc2O)cc1OC` [Compound 25, N-[2-(2,4-Dihydroxy-benzylidene-hydrazinocarbonyl)-phenyl]-3,4-dimethoxy-benzamide]: the half-maximal inhibitory concentration (IC50) was 23.9 µM.
`COc1cccc(CNNC(=O)c2cc(Br)ccc2NC(=O)c2ccc(CN3CCC(N4CCCCC4)CC3)cc2)c1` [Compound 378, 4-[1,4′]Bipiperidinyl-1′-ylmethyl-N-{4-bromo-2-[N′-(3-methoxy-benzyl)-hydrazinocarbonyl]-phenyl}-benzamide]: the IC50 was found to be 4.35 µM.
For the molecule `COc1ccc(/C=N/NC(=O)c2cc(Br)ccc2NC(=O)c2ccc(OC)c(OC)c2)cc1Br` [Compound 97, N-[4-Bromo-2-(3-bromo-4-methoxy-benzylidene-hydrazinocarbonyl)-phenyl]-3,4-dimethoxy-benzamide], the IC50 is 0.51 µM.
As for `Cc1ccc(/C=N/NC(=O)c2cc(Br)ccc2NC(=O)c2cccc(C[S+]([O-])CCO)c2)cc1` (stereo not drawn) [Compound 677, N-[4-Bromo-2-(4-methyl-benzylidene-hydrazinocarbonyl)-phenyl]-3-(2-hydroxy-ethanesulfinylmethyl)-benzamide], the IC50 is less than 3 µM.
The same measure, in the same setting: the same measure for `CCN(CC)CCN(CCN(CC)CC)Cc1cccc(C(=O)Nc2scc(C)c2C(=O)N/N=C/c2ccc(OC)cc2)c1` [Compound 843, 3-{[Bis-(2-diethylamino-ethyl)-amino]-methyl}-N-[3-(4-methoxy-benzylidene-hydrazinocarbonyl)-4-methyl-thiophen-2-yl]-benzamide]: 4.19 µM; for `CCN(CC)CCN(C)Cc1cccc(C(=O)Nc2c(C)csc2C(=O)N/N=C/c2ccc(C)c(C)c2)c1` [Compound 342, 3-{[(2-Diethylamino-ethyl)-methyl-amino]-methyl}-N-[2-(3,4-dimethyl-benzylidene-hydrazinocarbonyl)-4-methyl-thiophen-3-yl]-benzamide]: 32.6 µM.
The same measure, in the same setting: the same measure for `Cc1ccc(/C=N/NC(=O)c2cc(Br)ccc2NC(=O)c2ccc(CN3CCN(CC(=O)N4CCOCC4)CC3)cc2)cc1C` [Compound 305, N-[4-Bromo-2-(3,4-dimethyl-benzylidene-hydrazinocarbonyl)-phenyl]-4-[4-(2-morpholin-4-yl-2-oxo-ethyl)-piperazin-1-ylmethyl]-benzamide]: 2.47 µM; for `COc1cc(OC)cc(C(=O)Nc2ccccc2C(=O)N/N=C/c2cccc(O)c2)c1` [Compound 58, N-[2-(3-Hydroxy-benzylidene-hydrazinocarbonyl)-phenyl]-3,5-dimethoxy-benzamide]: 7.67 µM.

The same assay, now with this note: phosphate uptake, oocytes expressing rat NaPi-2b; 300 μM, determined from inhibition curve.
Broadly, the inhibition is the change of the read-out against control, counted positive when it falls. Low values mean little suppression, high ones strong suppression. Molecule `CCN(CC)CCNCc1cccc(C(=O)Nc2c(C)csc2C(=O)N/N=C/c2ccc(C)c(C)c2)c1` [Compound 536, 3-[(2-Diethylamino-ethylamino)-methyl]-N-[2-(3,4-dimethyl-benzylidene-hydrazinocarbonyl)-4-methyl-thiophen-3-yl]-benzamide] yielded an inhibition at 300 µM of 88.2%.
On to `COc1ccc(C(=O)Nc2ccccc2C(=O)N/N=C/c2ccccn2)cc1OC` [Compound 245], for which testing at 300 µM gave an inhibition of 31.7%.
